Assay results published in US7138361B2, “Herbicidal heterocycles” (E. I. du Pont de Nemours and Company, priority 2000, dated 2006).

What was measured:
Assay type in all cases: in vivo
[1] = system: crabgrass (Digitaria sanguinalis); assay: Test B postemergence
Outline: (§1)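 Preemergence: seeds planted and treated with test chemicals in non-phytotoxic solvent with surfactant; postemergence on plants 2–18 cm (1- to 4-leaf stage). Kept in greenhouse 13–15 days, then visually rated against controls on a 0 (no effect) to 100 (complete control) scale.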

[2] = system: blackgrass (Alopecurus myosuroides); assay: Test B postemergence
Outline: as §1

[3] = system: cocklebur (Xanthium strumarium); assay: Test B postemergence
Outline: as §1

[4] = system: goosegrass (Eleusine indica); assay: Test C preemergence; details: for Plant response rating (0 to 100), Goosegrass: Rate 500 g/ha, visual evaluation after 12 to 14 days
Outline: (§2)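 Herbicidal effect is a visual 0–100 score (100 = complete control) assigned versus untreated plants, 12 to 14 days after spraying in the greenhouse. Test compounds were applied in a non-phytotoxic, surfactant-containing solvent.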

[5] = system: crabgrass (Digitaria sanguinalis); assay: Test C preemergence; details: for Plant response rating (0 to 100), Crabgrass: Rate 500 g/ha, visual evaluation after 12 to 14 days
Outline: as §2

[6] = system: yellow nutsedge (Cyperus esculentus); assay: Test C preemergence; details: for Plant response rating (0 to 100), Nutsedge: Rate 500 g/ha, visual evaluation after 12 to 14 days
Outline: as §2

[7] = system: common ragweed (Ambrosia elatior); assay: Test C preemergence; details: for Plant response rating (0 to 100), Ragweed, Common: Rate 500 g/ha, visual evaluation after 12 to 14 days
Outline: as §2

[8] = system: bermudagrass (Cynodon dactylon); assay: Test C preemergence; details: for Plant response rating (0 to 100 where 0 is no effect and 100 is complete control), Bermudagrass: Rate 500 g/ha, visual evaluation after 12 to 14 days
Outline: as §2

[9] = system: Nightshade; assay: Test C preemergence
[10] = system: giant foxtail (Setaria faberii); assay: Test C preemergence; details: for Plant response rating (0 to 100), Foxtail, Giant: Rate 500 g/ha, visual evaluation after 12 to 14 days
Outline: as §2

[11] = system: soybean (Glycine max); assay: Test C preemergence; details: for Plant response rating (0 to 100), Soybean: Rate 500 g/ha, visual evaluation after 12 to 14 days
Outline: as §2

[12] = system: lambsquarters (Chenopodium album); assay: Test C preemergence; details: for Plant response rating (0 to 100), Lambsquarters: Rate 500 g/ha, visual evaluation after 12 to 14 days
Outline: as §2

[13] = system: morningglory (Ipomoea hederacea); assay: Test C preemergence; details: for Plant response rating (0 to 100), Morningglory: Rate 500 g/ha, visual evaluation after 12 to 14 days
Outline: as §2

[14] = system: johnsongrass (Sorghum halepense); assay: Test C preemergence; details: for Plant response rating (0 to 100), Johnsongrass: Rate 500 g/ha, visual evaluation after 12 to 14 days
Outline: as §2

[15] = system: kochia (Kochia scoparia); assay: Test C preemergence; details: for Plant response rating (0 to 100), Kochia: Rate 500 g/ha, visual evaluation after 12 to 14 days
Outline: as §2

[16] = system: cocklebur (Xanthium strumarium); assay: Test C preemergence
Outline: as §2

[17] = system: corn (Zea mays); assay: Test C preemergence; details: for Plant response rating (0 to 100), Corn: Rate 500 g/ha, visual evaluation after 12 to 14 days
Outline: as §2

[18] = system: Surinam grass (Brachiaria decumbens); assay: Test C preemergence; details: for Plant response rating (0 to 100), Surinam grass: Rate 500 g/ha, visual evaluation after 12 to 14 days
Outline: as §2

[19] = system: Sunflower; assay: Test C preemergence; details: Rate 250 g/ha, scale 0 to 100, 0 no effect, 100 complete control
[20] = Rate 125 g/ha, scale 0 to 100, 0 no effect, 100 complete control
[21] = Rate 500 g/ha, scale 0 (no effect) to 100 (complete control), 13 to 15 days
[22] = preemergence, Rate 62 g/ha, scale 0 to 100
[23] = preemergence, Rate 250 g/ha, scale 0 to 100, 0 no effect, 100 complete control
[24] = Rate 250 g/ha, scale 0 to 100, 0 no effect, 100 complete control

For `COc1cc(N2CCC(n3ccc(C(C)C)n3)C2=O)ccc1Br` (stereo not shown) [Compound 140], the “Plant response rating, Crabgrass” value [1, 20] was 20, the “Plant response rating, Crabgrass” value [1, 21] was 80 and the “Plant response rating, Blackgrass” value [2, 20] was 0. For the same compound, the “Plant response rating, Blackgrass” value [2, 21] was 0, the “Plant response rating, Cocklebur” value [3, 20] was 60 and the “Plant response rating, Cocklebur” value [3, 21] was 90. For the same compound, the “Plant response rating, Goosegrass” value [4, 20] was 100, the “Plant response rating, Goosegrass” value [4, 22] was 100 and the “Plant response rating (0 to 100), Goosegrass” value ([4]; preemergence) was 100. For the same compound, the “Plant response rating, Goosegrass” value [4, 23] was 100, the “Plant response rating, Crabgrass” value [5, 20] was 100 and the “Plant response rating, Crabgrass” value [5, 22] was 100. For the same compound, the “Plant response rating (0 to 100), Crabgrass” value ([5]; preemergence) was 100, the “Plant response rating, Crabgrass” value [5, 23] was 100 and the “Plant response rating, Nutsedge” value [6, 20] was 40. The “Plant response rating, Nutsedge” value [6, 22] was 20, the “Plant response rating (0 to 100), Nutsedge” value ([6]; preemergence) was 70 and the “Plant response rating, Nutsedge” value [6, 23] was 60. The “Plant response rating, Ragweed, Common” value [7, 22] was 100, the “Plant response rating (0 to 100), Ragweed, Common” value ([7]; preemergence) was 100 and the “Plant response rating, Ragweed, Common” value [7, 23] was 100. The “Plant response rating, Bermudagrass” value [8, 20] was 100, the “Plant response rating, Bermudagrass” value [8, 22] was 100 and the “Plant response rating (0 to 100 where 0 is no effect and 100 is complete control), Bermudagrass” value ([8]; preemergence) was 100. The “Plant response rating, Bermudagrass” value [8, 23] was 100, the “Plant response rating, Nightshade” value ([9]; Rate 62 g/ha, scale 0 to 100) was 100 and the “Plant response rating, Nightshade” value [9, 20] was 100. The “Plant response rating, Nightshade” value [9, 24] was 100, the “Plant response rating, Foxtail, Giant” value [10, 20] was 100 and the “Plant response rating, Foxtail, Giant” value [10, 22] was 100. For the same compound, the “Plant response rating (0 to 100), Foxtail, Giant” value ([10]; preemergence) was 100, the “Plant response rating, Foxtail, Giant” value [10, 23] was 100 and the “Plant response rating, Soybean” value [11, 20] was 80. The “Plant response rating, Soybean” value [11, 22] was 50, the “Plant response rating (0 to 100), Soybean” value ([11]; preemergence) was 100 and the “Plant response rating, Soybean” value [11, 23] was 100. The “Plant response rating, Lambsquarters” value [12, 20] was 100, the “Plant response rating, Lambsquarters” value [12, 22] was 100 and the “Plant response rating (0 to 100), Lambsquarters” value ([12]; preemergence) was 100. For the same compound, the “Plant response rating, Lambsquarters” value [12, 23] was 100, the “Plant response rating, Morningglory” value [13, 20] was 90 and the “Plant response rating, Morningglory” value [13, 22] was 70. The “Plant response rating (0 to 100), Morningglory” value ([13]; preemergence) was 100, the “Plant response rating, Morningglory” value [13, 23] was 100 and the “Plant response rating, Johnsongrass” value [14, 20] was 20. The “Plant response rating, Johnsongrass” value [14, 22] was 0, the “Plant response rating (0 to 100), Johnsongrass” value ([14]; preemergence) was 100 and the “Plant response rating, Johnsongrass” value [14, 23] was 100. For the same compound, the “Plant response rating, Kochia” value [15, 20] was 100, the “Plant response rating, Kochia” value [15, 22] was 100 and the “Plant response rating (0 to 100), Kochia” value ([15]; preemergence) was 100. For the same compound, the “Plant response rating, Kochia” value [15, 23] was 100, the “Plant response rating, Cocklebur” value [16, 20] was 30 and the “Plant response rating, Cocklebur” value [16, 22] was 30. The “Plant response rating, Cocklebur” value [16, 23] was 90, the “Plant response rating, Corn” value [17, 20] was 20 and the “Plant response rating, Corn” value [17, 22] was 20. The “Plant response rating (0 to 100), Corn” value ([17]; preemergence) was 30, the “Plant response rating, Corn” value [17, 23] was 30 and the “Plant response rating, Surinam grass” value [18, 20] was 0. For the same compound, the “Plant response rating, Surinam grass” value [18, 22] was 0, the “Plant response rating (0 to 100), Surinam grass” value ([18]; preemergence) was 100 and the “Plant response rating, Surinam grass” value [18, 23] was 90. For the same compound, the “Plant response rating, Sunflower” value [19] was 60.

`COc1cc(N2CCC(n3ccc(C(C)(C)C)n3)C2=O)ccc1Br` (stereo not shown) [Compound 141] was tested, and the “Plant response rating, Crabgrass” value [1, 20] was 20, the “Plant response rating, Crabgrass” value [1, 21] was 40 and the “Plant response rating, Blackgrass” value [2, 20] was 0. For the same compound, the “Plant response rating, Blackgrass” value [2, 21] was 40, the “Plant response rating, Cocklebur” value [3, 20] was 40 and the “Plant response rating, Cocklebur” value [3, 21] was 100. The “Plant response rating, Goosegrass” value [4, 20] was 100, the “Plant response rating, Goosegrass” value [4, 22] was 100 and the “Plant response rating (0 to 100), Goosegrass” value ([4]; preemergence) was 100. For the same compound, the “Plant response rating, Goosegrass” value [4, 23] was 100, the “Plant response rating, Crabgrass” value [5, 20] was 100 and the “Plant response rating, Crabgrass” value [5, 22] was 100. The “Plant response rating (0 to 100), Crabgrass” value ([5]; preemergence) was 100, the “Plant response rating, Crabgrass” value [5, 23] was 100 and the “Plant response rating, Nutsedge” value [6, 20] was 0. The “Plant response rating, Nutsedge” value [6, 22] was 0, the “Plant response rating (0 to 100), Nutsedge” value ([6]; preemergence) was 50 and the “Plant response rating, Nutsedge” value [6, 23] was 0. For the same compound, the “Plant response rating, Ragweed, Common” value [7, 20] was 100, the “Plant response rating, Ragweed, Common” value [7, 22] was 100 and the “Plant response rating (0 to 100), Ragweed, Common” value ([7]; preemergence) was 100. The “Plant response rating, Ragweed, Common” value [7, 23] was 100, the “Plant response rating, Bermudagrass” value [8, 20] was 100 and the “Plant response rating, Bermudagrass” value [8, 22] was 100. For the same compound, the “Plant response rating (0 to 100 where 0 is no effect and 100 is complete control), Bermudagrass” value ([8]; preemergence) was 100, the “Plant response rating, Bermudagrass” value [8, 23] was 100 and the “Plant response rating, Nightshade” value ([9]; Rate 62 g/ha, scale 0 to 100) was 100. The “Plant response rating, Nightshade” value [9, 20] was 100, the “Plant response rating, Nightshade” value [9, 24] was 100 and the “Plant response rating, Foxtail, Giant” value [10, 20] was 100. The “Plant response rating, Foxtail, Giant” value [10, 22] was 100, the “Plant response rating (0 to 100), Foxtail, Giant” value ([10]; preemergence) was 100 and the “Plant response rating, Foxtail, Giant” value [10, 23] was 100. The “Plant response rating, Soybean” value [11, 20] was 100, the “Plant response rating, Soybean” value [11, 22] was 70 and the “Plant response rating (0 to 100), Soybean” value ([11]; preemergence) was 100. The “Plant response rating, Soybean” value [11, 23] was 100, the “Plant response rating, Lambsquarters” value [12, 20] was 100 and the “Plant response rating, Lambsquarters” value [12, 22] was 100. The “Plant response rating (0 to 100), Lambsquarters” value ([12]; preemergence) was 100, the “Plant response rating, Lambsquarters” value [12, 23] was 100 and the “Plant response rating, Morningglory” value [13, 20] was 100. The “Plant response rating, Morningglory” value [13, 22] was 30, the “Plant response rating (0 to 100), Morningglory” value ([13]; preemergence) was 100 and the “Plant response rating, Morningglory” value [13, 23] was 100. For the same compound, the “Plant response rating, Johnsongrass” value [14, 20] was 0, the “Plant response rating, Johnsongrass” value [14, 22] was 0 and the “Plant response rating (0 to 100), Johnsongrass” value ([14]; preemergence) was 100. For the same compound, the “Plant response rating, Johnsongrass” value [14, 23] was 0, the “Plant response rating, Kochia” value [15, 20] was 100 and the “Plant response rating, Kochia” value [15, 22] was 100. For the same compound, the “Plant response rating (0 to 100), Kochia” value ([15]; preemergence) was 100, the “Plant response rating, Kochia” value [15, 23] was 100 and the “Plant response rating, Cocklebur” value [16, 20] was 60. The “Plant response rating, Cocklebur” value [16, 22] was 0, the “Plant response rating (0 to 100), Cocklebur” value ([16]; preemergence, Rate 500 g/ha, visual evaluation after 12 to 14 days) was 100 and the “Plant response rating, Cocklebur” value [16, 23] was 70. The “Plant response rating, Corn” value [17, 20] was 30, the “Plant response rating, Corn” value [17, 22] was 0 and the “Plant response rating (0 to 100), Corn” value ([17]; preemergence) was 30. For the same compound, the “Plant response rating, Corn” value [17, 23] was 30, the “Plant response rating, Surinam grass” value [18, 20] was 20 and the “Plant response rating, Surinam grass” value [18, 22] was 10. For the same compound, the “Plant response rating (0 to 100), Surinam grass” value ([18]; preemergence) was 100, the “Plant response rating, Surinam grass” value [18, 23] was 20 and the “Plant response rating, Sunflower” value [19] was 40.
